Nine compounds from patent publication US20240251792A1, “WEED CONTROL METHOD” (SYNGENTA CROP PROTECTION AG, priority 2021, published 2024) can be followed below.

Like-named read-outs stand apart in the source and are kept apart here.

Holding throughout (assay type): in vivo
For experiment [1], the system named is weeds and/or crops. As to the kind of experiment: Post-emergence biological efficacy (Table 4). The following applies: evaluated after 13 days; for pest or weed control at 1000 g/ha / pest or weed control at 250 g/ha: 312 h. Put shortly: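 Scores are visual damage (0 = none, 100 = total), read 13 days after treatment at 24/18 °C with 15 h light. Plants had been sown in standard soil and grown 14 days before a spray of compound in F50/acetone, diluted with 0.2% Genapol X080.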

Experiment [2] relates to SETFA. As to the kind of experiment: Pre-emergence biological efficacy (Table 3). The following applies: Setaria faberi, 312 h, after 13 days, read-out: evaluation (100=total damage to plant; 0=no damage to plant). The gist of the method:
(§1)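 Visual damage score (0 = no damage, 100 = total damage) read 13 days after spraying. Pots were sown one day earlier and held at 24/19 °C, 16 h light; the 50 g/l acetone/AMA formulation was diluted in 0.2% Genapol X080 to the final dose.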

Experiment [3] has as its system ECHCG. Kind of experiment: Pre-emergence biological efficacy (Table 3). To be noted: Echinochloa crus-galli, 312 h, after 13 days, read-out: evaluation (100=total damage to plant; 0=no damage to plant). The gist of the method: as §1
Experiment [4] has as its system LOLPE. As to the kind of experiment: Pre-emergence biological efficacy (Table 3). To be noted: 1000 g/ha, after 13 days. Put shortly: as §1
The test system of experiment [5] is AMARE. Kind of experiment: Pre-emergence biological efficacy (Table 3). The following applies: Amaranthus retroflexus, 312 h, after 13 days, read-out: evaluation (100=total damage to plant; 0=no damage to plant). The gist of the method: as §1
In experiment [6] the test system is IPOHE. As to the kind of experiment: Pre-emergence biological efficacy (Table 3). To be noted: Ipomoea hederacea, 312 h, after 13 days, read-out: evaluation (100=total damage to plant; 0=no damage to plant). The gist of the method:
as §1

Experiment [7] relates to SOLNI. As to the kind of experiment: Pre-emergence biological efficacy (Table 3). To be noted: 1000 g/ha, after 13 days. Put shortly: as §1
Experiment [8] deals with ZEAMX. As to the kind of experiment: Pre-emergence biological efficacy (Table 3). The following applies: 312 h, after 13 days, read-out: evaluation (100=total damage to plant; 0=no damage to plant). Put shortly: as §1
For experiment [9], the system named is AMAPA. As to the kind of experiment: Pre-emergence biological efficacy (Table 3). The following applies: 312 h, after 13 days, read-out: evaluation (100=total damage to plant; 0=no damage to plant). Put shortly: as §1
Setting [10] is: Amaranthus retroflexus, AMARE, 1000 g/ha, read-out: damage to plant AMARE (100=total damage; 0=no damage).
[11] abbreviates: Echinochloa crus-galli, ECHCG, 1000 g/ha, read-out: damage to plant ECHCG (100=total damage; 0=no damage).
[12] abbreviates: Ipomoea hederacea, IPOHE, 1000 g/ha, read-out: damage to plant IPOHE (100=total damage; 0=no damage).
Where [13] appears, read: Setaria faberi, SETFA, 1000 g/ha, read-out: damage to plant SETFA (100=total damage; 0=no damage).
Setting [14] is: AMAPA, 1000 g/ha, read-out: damage to plant AMAPA (100=total damage; 0=no damage).
The mark [15] stands for this setting: ZEAMX, 1000 g/ha, read-out: damage to plant ZEAMX (100=total damage; 0=no damage).

For the compound `COc1cccc(Cl)c1C(F)(F)C(=O)O` [Compound 1-65, 2-(2-Chloro-6-methoxy-phenyl)-2,2-difluoro-acetic acid], the pest or weed control at 1000 g/ha came to 70% in experiment [1] (setting [10]); 0% in [1] (setting [11]); 70% in [1] (setting [12]); 0% in [1] (setting [13]); 0% in experiment [2]; 0% in experiment [3]. Also, the figures for the pest or weed control at 1000 g/ha in experiment [5] and in experiment [6] were 60% and 40%, respectively. Besides, the “damage to plant LOLPE (100=total damage; 0=no damage)” value in [1] (1000 g/ha) was found to be 0. In addition, in experiment [4], the “evaluation (100=total damage to plant; 0=no damage to plant)” value stood at 0.
For `COc1c(Cl)ccc(Cl)c1C(F)(F)C(=O)O` [Compound 1-326, 2-(3,6-dichloro-2-methoxy-phenyl)-2,2-difluoro-acetic acid], the pest or weed control at 1000 g/ha was 80% in experiment [1] (setting [10]); 0% in experiment [1] (setting [11]); 80% in [1] (setting [12]); 0% in [1] (setting [13]); 10% in [2]; 30% in experiment [3]. Besides, the pest or weed control at 1000 g/ha was 50% in [5] and 20% in [6]. Moreover, the “damage to plant LOLPE (100=total damage; 0=no damage)” value in [1] (1000 g/ha) worked out at 0. Further, in experiment [4], the “evaluation (100=total damage to plant; 0=no damage to plant)” value was found to be 10.
Regarding `O=C(O)C(F)(F)c1c(Cl)ccc2cc(Cl)cnc12` [Compound 1-418, 2-(3,7-Dichloro-8-quinolyl)-2,2-difluoro-acetic acid], the pest or weed control at 1000 g/ha in experiment [1] (setting [10]) is 50%; in experiment [1] (setting [11]) it was 0%; in experiment [1] (setting [12]), 40%; in experiment [1] (setting [13]), 0%; in [2], 50%; in experiment [3], 20%. Further, the figures for the pest or weed control at 1000 g/ha in experiment [5] and in experiment [6] were 30% and 50%, respectively. Moreover, the “damage to plant LOLPE (100=total damage; 0=no damage)” value in [1] (1000 g/ha) was determined as 0. The “damage to plant SOLNI (100=total damage; 0=no damage)” value in [1] (SOLNI, 1000 g/ha) is 90. In addition, the “evaluation (100=total damage to plant; 0=no damage to plant)” value in experiment [4] is listed as 0; in [7] it was 10.
Consider `Cc1cccc(C(F)(F)C(=O)O)c1C#N` [Compound 1-462, 2-(2-Cyano-3-methyl-phenyl)-2,2-difluoro-acetic acid], for which the pest or weed control at 1000 g/ha is 80% in experiment [1] (setting [14]); 10% in experiment [1] (setting [15]); 80% in [1] (setting [10]); 0% in [1] (setting [11]); 70% in [1] (setting [12]); 20% in experiment [1] (setting [13]). For the same compound, the pest or weed control at 1000 g/ha in [2] was 0%; in experiment [3], 0%; in [5], 50%; in experiment [6], 40%; in experiment [9], 30%. The plant injury at 1000 g/ha in [8] came out at 0%.
On to `COc1c(C)cccc1C(F)(F)C(=O)O` [Compound 1-463, 2,2-Difluoro-2-(2-methoxy-3-methyl-phenyl)acetic acid], for which the pest or weed control at 1000 g/ha in experiment [1] (setting [14]) came to 70%; in experiment [1] (setting [15]) it was 10%; in experiment [1] (setting [10]), 80%; in experiment [1] (setting [11]), 10%; in [1] (setting [12]), 70%; in experiment [1] (setting [13]) it was 30%. Besides, the pest or weed control at 1000 g/ha was found to be 0% in experiment [2]; 0% in [3]; 50% in experiment [5]; 50% in experiment [6]; 60% in [9]. The plant injury at 1000 g/ha in experiment [8] worked out at 0%.
For `COc1c(C(F)(F)F)cccc1C(F)(F)C(=O)O` [Compound 1-464, 2,2-Difluoro-2-[2-methoxy-3-(trifluoromethyl)phenyl]acetic acid], the pest or weed control at 250 g/ha in experiment [1] (AMAPA, read-out: damage to plant AMAPA (100=total damage; 0=no damage)) worked out at 80%; in [1] (ZEAMX, read-out: damage to plant ZEAMX (100=total damage; 0=no damage)), 10%; in [1] (Amaranthus retroflexus, AMARE, read-out: damage to plant AMARE (100=total damage; 0=no damage)) it was 80%; in experiment [1] (Echinochloa crus-galli, ECHCG, read-out: damage to plant ECHCG (100=total damage; 0=no damage)), 70%; in [1] (Ipomoea hederacea, IPOHE, read-out: damage to plant IPOHE (100=total damage; 0=no damage)), 60%; in [1] (Setaria faberi, SETFA, read-out: damage to plant SETFA (100=total damage; 0=no damage)), 70%. The pest or weed control at 250 g/ha in experiment [2] (250 g/ha) was 30%; in experiment [3] (250 g/ha) it was 10%; in experiment [5] (250 g/ha), 40%; in experiment [6] (250 g/ha), 50%; in [9] (250 g/ha) it was 60%. Further, the plant injury at 250 g/ha in experiment [8] (250 g/ha) is 20%.
Consider `O=C(O)C(F)(F)c1ccccc1OC(F)(F)F` [Compound 1-465, 2,2-Difluoro-2-[2-(trifluoromethoxy)phenyl]acetic acid], for which the pest or weed control at 1000 g/ha turned out to be 80% in experiment [1] (setting [14]); 20% in experiment [1] (setting [15]); 80% in [1] (setting [10]); 60% in experiment [1] (setting [11]); 70% in experiment [1] (setting [12]); 30% in experiment [1] (setting [13]). Further, the pest or weed control at 1000 g/ha in experiment [2] was 20%; in experiment [3], 20%; in [5], 70%; in experiment [6], 20%; in experiment [9] it was 70%. Moreover, the plant injury at 1000 g/ha in experiment [8] was determined as 20%.
With `COC(=O)C(F)(F)c1c(Cl)ccc(Cl)c1OC` [Compound 2-326, methyl 2-(3,6-dichloro-2-methoxy-phenyl)-2,2-difluoro-acetate], the pest or weed control at 1000 g/ha in [1] (setting [10]) is 70%; in experiment [1] (setting [11]) it was 0%; in experiment [1] (setting [12]) it was 40%; in [1] (setting [13]), 0%; in [2], 10%; in [3], 20%. The pest or weed control at 1000 g/ha in [5] and in experiment [6] was 40% in each case. Further, the “damage to plant LOLPE (100=total damage; 0=no damage)” value in experiment [1] (1000 g/ha) stood at 0. Also, in experiment [4], the “evaluation (100=total damage to plant; 0=no damage to plant)” value is 10.
`COC(=O)C(F)(F)c1c(Cl)ccc2cc(Cl)cnc12` [Compound 2-418, Methyl 2-(3,7-dichloro-8-quinolyl)-2,2-difluoro-acetate]: the pest or weed control at 1000 g/ha worked out at 70% in experiment [1] (setting [10]); 0% in experiment [1] (setting [11]); 80% in experiment [1] (setting [12]); 0% in [1] (setting [13]); 20% in experiment [2]; 10% in [3]. In addition, the figures for the pest or weed control at 1000 g/ha in experiment [5] and in [6] were 60% and 50%, respectively. Further, the “damage to plant LOLPE (100=total damage; 0=no damage)” value in experiment [1] (1000 g/ha) is 0. Moreover, the “evaluation (100=total damage to plant; 0=no damage to plant)” value in experiment [4] is 0.
